Entries after “also recorded” stand apart in the source; their conditions may differ. Like-named read-outs stand apart in the source and are kept apart here. Ends that are not written are not given here.
Experiments:
ηPKC = conditions: ηPKC-derived peptides; Ref. (1, 63); cited from earlier work
PKC [1] = assay: MARCKS phosphorylation in primary skeletal muscle cells from εPKC knockout mice (Western blot); conditions: primary mouse muscle cells from εPKC knock-out mice; 1 μM peptide for 15 minutes
εPKC [2] = assay: εPKC translocation from the soluble to the particulate fraction in CHO cells (immunoblot); format: cell-based; conditions: for εPKC translocation in cells: 500 nM peptide for 15 minutes before sub-maximal 3 nM PMA, relative to control
Description: Upon activation, PKC translocates from the soluble to the particulate cell fraction, which translocation can be monitored by immunoblot analysis (26). It was previously determined that the effect of peptides on PKC translocation is better observed when the cells are treated with a sub-maximal concentration of PMA (22,42). Larger concentrations of PMA, a non-physiological activator, stimulate a greater degree of PKC translocation over translocation stimulated by peptide activators alone (51).
A representative activator (peptide 2) or inhibitor (peptide 7) were preincubated at 500 nM for 15 minutes with cells before sub-optimal stimulation with 3 nM PMA for 7 minutes.
PKC Translocation in Cells—εPKC translocation from the soluble to the particulate fraction in CHO cells was used to assess the relative amount of activated (membrane-bound) εPKC, an assay that has been described previously (42). Evidence of translocation is either by an increase in the amount of PKC in the particulate fraction or by a decrease in the soluble fraction. Briefly, after stimulation, cells were washed with cold PBS, scraped in homogenization buffer, passed through a (25G⅝″) syringe needle, and spun at 100,000 g for 30 min at 4° C. The pellet was then resuspended in homogenization buffer with 1% Triton X-100. Where applicable, the cells were pre-incubated with 500 nM peptide for 15 minutes prior to stimulation. PKC was stimulated with sub-maximal levels of the general PKC activator phorbol 12-myristate 13-acetate (PMA, 3 nM). The samples were then analyzed by Western blot. Antibodies against εPKC were obtained from Santa Cruz Biotechnology (Santa Cruz, Calif.) and used at 1:500 dilution.

intact heart, ex vivo [3] = assay: Ex vivo cardiac protection, ischemia and reperfusion in Langendorff-perfused hearts (TTC staining, CPK release); parameters: species or system Wistar rats
PKC [4] = conditions: primary mouse muscle cells, wild-type; 1 μM peptide for 15 or 30 minutes prior to cell lysis
εPKC [5] = target: T1, εPKC (Mus musculus, UniProt P16054); assay: In vivo PKC translocation in hearts after intraperitoneal injection (immunoblot); parameters: species or system mice; conditions: for translocation of εPKC in hearts in vivo: particulate fraction of mouse hearts, 15 minutes following IP injection of 20 nmol peptide, relative to control TAT peptide
T1 construct: from tissue; host or cells: mouse heart
T1 sequence (P16054 1-737): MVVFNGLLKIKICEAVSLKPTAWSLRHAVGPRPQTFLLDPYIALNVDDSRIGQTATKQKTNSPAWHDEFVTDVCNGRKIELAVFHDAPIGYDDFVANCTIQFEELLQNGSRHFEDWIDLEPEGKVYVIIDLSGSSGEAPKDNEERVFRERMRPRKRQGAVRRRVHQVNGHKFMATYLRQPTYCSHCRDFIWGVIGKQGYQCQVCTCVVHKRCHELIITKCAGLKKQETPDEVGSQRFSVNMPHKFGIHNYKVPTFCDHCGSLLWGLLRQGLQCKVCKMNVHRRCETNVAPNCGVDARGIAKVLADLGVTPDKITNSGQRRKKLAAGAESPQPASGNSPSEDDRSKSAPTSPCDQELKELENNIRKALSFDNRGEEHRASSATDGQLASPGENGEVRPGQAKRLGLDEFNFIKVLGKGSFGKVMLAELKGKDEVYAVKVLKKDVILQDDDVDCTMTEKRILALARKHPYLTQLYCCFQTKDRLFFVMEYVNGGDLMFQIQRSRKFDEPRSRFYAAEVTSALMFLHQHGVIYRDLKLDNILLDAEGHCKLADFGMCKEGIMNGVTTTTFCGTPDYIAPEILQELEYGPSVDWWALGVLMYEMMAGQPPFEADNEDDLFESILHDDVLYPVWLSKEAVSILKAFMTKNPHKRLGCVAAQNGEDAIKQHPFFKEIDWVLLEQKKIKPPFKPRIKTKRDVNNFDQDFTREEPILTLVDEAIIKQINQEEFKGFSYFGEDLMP
Description: (§1) In a further in vivo study, peptide activity and selectivity were examined using representative peptides injected into mice via intraperitoneal (IP) injection, and the amount of εPKC, δPKC, αPKC, and ζPKC translocation in hearts was determined. These four PKC isozymes represent each of the three major sub-families of PKC. In particular, εPKC and δPKC are members of the novel PKC family (calcium insensitive, diacylglycerol sensitive), αPKC is a classical PKC (calcium and diacylglycerol sensitive), and ζPKC is an atypical PKC (calcium and diacylglycerol insensitive).
(§2) Levels of εPKC, δPKC, αPKC, and ζPKC in the particulate fraction of mouse hearts were assayed by immunoblot 15 minutes following IP injection of 20 nmol each peptides (FIGS. 5A-5D). The accompanying graphs show quantitation based on two experiments, calculated as fold increase (+/−standard error) in the particulate fraction/total fraction, normalized to the actin loading control, and relative to the control TAT peptide. […] Since peptides 11 and 13 caused MARCKS phosphorylation in myocytes from the εPKC knockout mice (FIG. 3), it is concluded that they activated several PKC isozymes.
(§3) Isozyme Selectivity In Vivo—To determine that activator peptides causing MARCKS phosphorylation and decreasing ischemia-reperfusion damage in heart also induce εPKC translocation in vivo, we injected the respective peptides at 20 nmol in 200 μl saline into the peritoneum of 15-20 g mice, as previously reported (48). Fifteen minutes later, the mice were sacrificed and heart and brain were collected. Soluble and particulate fractions from mouse tissue were prepared as previously described (48). ε, ζ and δPKC translocation were determined by Western blot analysis using selective anti-PKC antibodies from Santa Cruz Biotechnology, Santa Cruz, Calif. and used at 1:500 dilution. Sarcomeric actin (1:1000, Sigma) was used as a loading control for all fractions.

intact heart, ex vivo [6] = conditions: pre-treatment, Langendorff apparatus; refs (4,43); cited from earlier work
δPKC = target: T2, δPKC (Mus musculus, UniProt P28867); assay: In vivo PKC translocation in hearts after intraperitoneal injection (immunoblot); parameters: species or system mice; conditions: particulate fraction of mouse hearts, 15 minutes following IP injection of 20 nmol peptide; relative to control TAT peptide
T2 construct: from tissue; host or cells: mouse heart
Description: as §1, §2, §3

[7] = 1 μM TAT-conjugated peptide 10 minutes prior to 40 minutes global ischemia, 60 minutes reperfusion (peptide 9: 30 minutes ischemia), † and ‡ = trend towards cardioprotective (n = 5, n = 3)

Sequence of ηPKC (P24723 whole entry): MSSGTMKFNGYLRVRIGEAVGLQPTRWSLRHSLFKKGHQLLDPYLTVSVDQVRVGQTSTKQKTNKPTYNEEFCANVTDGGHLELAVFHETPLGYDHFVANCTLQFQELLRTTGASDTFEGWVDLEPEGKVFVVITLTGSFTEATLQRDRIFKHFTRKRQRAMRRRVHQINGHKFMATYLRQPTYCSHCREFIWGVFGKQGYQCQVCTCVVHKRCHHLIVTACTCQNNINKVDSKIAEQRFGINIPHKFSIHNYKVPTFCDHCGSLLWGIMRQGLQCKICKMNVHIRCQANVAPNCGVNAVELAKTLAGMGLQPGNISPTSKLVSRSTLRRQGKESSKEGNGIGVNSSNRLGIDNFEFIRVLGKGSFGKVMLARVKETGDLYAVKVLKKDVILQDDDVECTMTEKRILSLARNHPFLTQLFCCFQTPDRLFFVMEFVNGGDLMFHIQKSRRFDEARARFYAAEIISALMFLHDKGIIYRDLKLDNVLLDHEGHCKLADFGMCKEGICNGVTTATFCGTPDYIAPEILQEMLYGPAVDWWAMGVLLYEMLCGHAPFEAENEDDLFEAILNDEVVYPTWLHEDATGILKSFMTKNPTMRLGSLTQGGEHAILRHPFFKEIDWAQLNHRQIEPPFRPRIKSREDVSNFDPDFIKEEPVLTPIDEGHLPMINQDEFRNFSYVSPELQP
T2 sequence (P28867 whole entry): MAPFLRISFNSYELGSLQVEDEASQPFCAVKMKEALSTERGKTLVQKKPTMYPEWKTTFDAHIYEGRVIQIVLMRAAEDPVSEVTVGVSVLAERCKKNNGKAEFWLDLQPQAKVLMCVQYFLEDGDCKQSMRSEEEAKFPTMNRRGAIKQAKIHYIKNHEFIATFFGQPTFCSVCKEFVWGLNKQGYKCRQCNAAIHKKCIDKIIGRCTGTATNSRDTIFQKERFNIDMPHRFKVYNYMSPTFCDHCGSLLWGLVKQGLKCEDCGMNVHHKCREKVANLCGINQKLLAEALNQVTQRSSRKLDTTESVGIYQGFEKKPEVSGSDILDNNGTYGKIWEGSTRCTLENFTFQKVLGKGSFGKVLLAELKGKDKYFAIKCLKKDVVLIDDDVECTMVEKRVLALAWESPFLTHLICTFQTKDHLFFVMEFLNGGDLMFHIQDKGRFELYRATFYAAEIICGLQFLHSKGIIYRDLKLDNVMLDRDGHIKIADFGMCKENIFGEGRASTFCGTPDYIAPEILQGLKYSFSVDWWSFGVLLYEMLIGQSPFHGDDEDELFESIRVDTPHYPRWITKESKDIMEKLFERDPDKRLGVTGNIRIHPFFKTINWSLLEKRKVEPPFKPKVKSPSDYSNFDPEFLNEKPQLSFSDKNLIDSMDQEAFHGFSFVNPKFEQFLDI

Row | Substance | MARCKS phosphorylation in εKO Cells (PKC [1]) | εPKC translocation in cells (εPKC [2]) | Cardioprotective ex vivo (intact heart, ex vivo [3]) | other results
1 | HETPLGYD (peptide derived from eta PKC) | – | – | – | Activity (known PKC-modulating activity) (ηPKC): activator
2 | CAVGPRPQT (not fully specified (residue 1)) [Peptide 2] | not in KO; also recorded: no effect | activator | – | increase in the amount of εPKC translocation compared to pre-treatment with the TAT control peptide (εPKC [2]; 500 nM peptide 15 minutes, then 3 nM PMA 7 minutes, n=5, p<0.05): approximately 30%; Cardioprotective ex vivo (intact heart, ex vivo [3]; [7]): cardioprotective and yes
3 | CPYIALNVD (not fully specified (residue 1)) [Peptide 4] | – | decrease in the amount of εPKC in the pellet fraction; also recorded: inhibitor | – | –
4 | CFLLDPY [Peptide 3] | not in KO; also recorded: no effect | activator | trend towards cardioprotection and yes‡ | –
5 | CIELAVF [Peptide 10] | not conclusive | activator | no | MARCKS phosphorylation in WT Cells (PKC [4]): activator
6 | CSRIGQ [Peptide 5] | not in KO; also recorded: no effect | activator | cardioprotective and yes | translocation of εPKC in hearts in vivo (εPKC [5]): caused translocation of εPKC
7 | CEAVSLKPT [εV1-2, reference compound] | no effect | decrease in the amount of εPKC in the pellet fraction; also recorded: inhibitor | – | Cardioprotective ex vivo (intact heart, ex vivo [3]; [7]): no
8 | CFNGLLKIKI (not fully specified (residue 1)) [Peptide 1] | not in KO; also recorded: no effect | activator | – | translocation of εPKC in hearts in vivo (εPKC [5]): caused translocation of εPKC; Cardioprotective ex vivo (intact heart, ex vivo [3]; [7]): trend towards cardioprotection and yes†
9 | CEFVTDV [Peptide 8] | not conclusive | activator | not cardioprotective and no | –
10 | CPDYHDAGI (not fully specified; also: TAT47-57 conjugated) [scrambled ψεRACK, reference compound] | – | – | not cardioprotective and no | MARCKS phosphorylation in WT Cells (PKC [4]): No change
11 | CHDAPIGYD [ψεRACK, reference compound] | not in KO; also recorded: no effect | activator | – | damage (infarction) of hearts subjected to ischemia and reperfusion ex vivo (intact heart, ex vivo [6]): reduced damage; translocation of εPKC in hearts in vivo (εPKC [5]): caused translocation of εPKC; Cardioprotective ex vivo (intact heart, ex vivo [3]; [7]): cardioprotective and yes
12 | CYGRKKRRQRRR (TAT carrier peptide with N-terminal cysteine) [reference compound] | no effect | no effect | – | MARCKS phosphorylation in WT Cells (PKC [4]): no effect; Cardioprotective ex vivo (intact heart, ex vivo [3]; [7]): no; Cardioprotective ex vivo (intact heart, ex vivo [3]; 1 μM TAT-conjugated peptide 10 minutes prior to 40 minutes global ischemia, 60 minutes reperfusion (peptide 9: 30 minutes ischemia), † and ‡ = trend towards cardioprotective (n = 5, n = 3), listed as TAT): not cardioprotective
13 | CNGRKI (not fully specified; also: TAT47-57 carrier linked via Cys disulfide) [Peptide 9] | not in KO; also recorded: no effect | activator | cardioprotective and yes | –
14 | CLSETKPAV (not fully specified; also: TAT47-57 conjugated) [scrambled εV1-2, reference compound] | no effect | stimulated εPKC translocation; also recorded: activator | not cardioprotective and no | PKC translocation, in vivo (εPKC [5]; mouse hearts, 15 minutes after IP injection of 20 nmol peptide, the cell words say which of ε, δ, α, ζPKC translocate): no; translocation of εPKC in hearts in vivo (εPKC [5]): did not cause an increase; translocation of δPKC in hearts in vivo (δPKC): did not cause an increase
15 | CLEPEGK [Peptide 12] | – | decrease in the amount of εPKC in the pellet fraction; also recorded: inhibitor | – | –
16 | CVYVIIDL (not fully specified (residue 1)) [Peptide 13] | increased MARCKS phosphorylation; also recorded: activator | activator | not cardioprotective and no | –
17 | EAVGLQPT (peptide derived from eta PKC) | – | – | – | Activity (known PKC-modulating activity) (ηPKC): inhibitor
18 | CPAWHD [Peptide 7] | – | decrease in the amount of εPKC in the pellet fraction; also recorded: inhibitor | no | decrease in the amount of translocated εPKC compared to pre-treatment with the TAT control peptide (εPKC [2]; 500 nM peptide 15 minutes, then 3 nM PMA 7 minutes, n=3, p<0.01): approximately 50%
19 | CTATKQKT (not fully specified; also: TAT47-57 carrier linked via Cys disulfide) [Peptide 6] | weak activator | activator | cardioprotective and yes | MARCKS phosphorylation in WT Cells (PKC [4]): activator

Source: patent US7851587B2, “Peptides derived from the C2 domain of epsilon PKC” (The Board of Trustees of the Leland Stanford Junior …, priority 2006, dated 2010)
